{
  "source": "patent US9024017B2",
  "about": "“Octahydro-cyclopentapyrrolyl antagonists of CCR2” (Janssen Pharmaceutica NV, priority 2012, dated 2015)",
  "data": [
    {"molecular_target": "T1, CCR2 (Homo sapiens, UniProt P41597)", "T1 construct": "host or cells: THP-1 (human monocytic cell line)", "T1 sequence (P41597 whole entry)": "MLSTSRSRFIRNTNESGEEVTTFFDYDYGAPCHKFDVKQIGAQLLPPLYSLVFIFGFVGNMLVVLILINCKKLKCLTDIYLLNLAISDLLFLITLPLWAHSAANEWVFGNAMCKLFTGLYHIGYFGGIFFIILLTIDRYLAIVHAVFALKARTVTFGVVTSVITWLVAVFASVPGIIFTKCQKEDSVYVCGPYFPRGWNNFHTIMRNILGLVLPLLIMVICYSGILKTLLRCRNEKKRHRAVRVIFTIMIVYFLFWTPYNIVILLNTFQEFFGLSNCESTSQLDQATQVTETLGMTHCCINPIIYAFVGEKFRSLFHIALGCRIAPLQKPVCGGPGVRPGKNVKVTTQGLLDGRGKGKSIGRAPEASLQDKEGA", "test": "MCP-1 Receptor Binding Assay in THP-1 Cells", "conditions": "read-out: MCP1B_v3 IC50", "procedure": "Compounds of the invention were subjected to various representative biological tests. […] MCP-1 Receptor Binding Assay in THP-1 Cells Human monocytic cell line THP-1 cells were obtained from American Type Culture Collection (Manassas, Va., USA). The THP-1 cells were grown in RPMI-1640 (RPMI: Roswell Park Memorial Institute Medium-cell culture growth media) supplemented with 10% fetal bovine serum in a humidified 5% CO2 atmosphere at 37° C. The cell density was maintained between […].\nTHP-1 (cells were incubated with 0.5 nM ^125I labeled MCP-1 (Perkin-Elmer Life Sciences, Inc. Boston, Mass.) in the presence of varying concentrations of either unlabeled MCP-1 (R & D Systems, Minneapolis, Minn.) or test compound for 2 hours at 30° C. in a 96 well plate. Cells were then harvested onto a filter plate, dried, and 20 μL of Microscint 20 was added to each well. Plates were counted in a TopCount NXT, Microplate Scintillation & Luminescence Counter (Perkin-Elmer Life Sciences, Inc. Boston, Mass.). Blank values (buffer only) were subtracted from all values and drug treated values were compared to vehicle treated values. 1 μM cold MCP-1 was used for nonspecific binding.", "units": {"IC50": "nM"}, "values": [
      {"smiles": "COC1COCCC1N[C@@H]1C[C@H]2CN(C(=O)NCC(C)(C)C)C[C@@]2(C(=O)N2CCc3ncc(C(F)(F)F)cc3C2)C1", "note": "(relative stereo) [Example 18, (3aR,5R,6aR)-5-(((3S*,4S*)-3-Methoxytetrahydro-2H-pyran-4-yl)amino)-N-neopentyl-3a-(3-(trifluoromethyl)-5,6,7,8-tetrahydro-1,6-naphthyridine-6-carbonyl)hexahydrocyclopenta[c]pyrrole-2(1H)-carboxamide]", "IC50": 410},
      {"smiles": "COC1COCCC1N[C@@H]1C[C@H]2CN(C(=O)n3ccnc3)C[C@@]2(C(=O)N2CCc3ccc(C(F)(F)F)cc3C2)C1", "note": "(relative stereo) [Example 24, ((3aR,5R,6aR)-2-(1H-Imidazole-1-carbonyl)-5-(((3S*,4S*)-3-methoxytetrahydro-2H-pyran-4-yl)amino)octahydrocyclopenta[c]pyrrol-3a-yl)(7-(trifluoromethyl)-3,4-dihydroisoquinolin-2(1H)-yl)methanone]", "IC50": 50},
      {"smiles": "CNC(=S)N1C[C@@H]2C[C@@H](NC3CCOCC3OC)C[C@]2(C(=O)N2CCc3ncc(C(F)(F)F)cc3C2)C1", "note": "(relative stereo) [Example 27, (3aR,5R,6aR)-5-(((3S*,4S*)-3-Methoxytetrahydro-2H-pyran-4-yl)amino)-N-methyl-3a-(3-(trifluoromethyl)-5,6,7,8-tetrahydro-1,6-naphthyridine-6-carbonyl)hexahydrocyclopenta[c]pyrrole-2(1H)-carbothioamide]", "IC50": 30},
      {"smiles": "COCCN[C@@H]1C[C@H]2CN(C(N)=O)C[C@@]2(C(=O)N2CCc3ncc(C(F)(F)F)cc3C2)C1", "note": "[Example 7]", "IC50": 5060},
      {"smiles": "COCCOC(=O)N1C[C@@H]2C[C@@H](NC3CCOCC3OC)C[C@]2(C(=O)N2CCc3ncc(C(F)(F)F)cc3C2)C1", "note": "(relative stereo) [Example 48, (3aR,5R,6aR)-2-Methoxyethyl 5-(((3S*,4S*)-3-methoxytetrahydro-2H-pyran-4-yl)amino)-3a-(3-(trifluoromethyl)-5,6,7,8-tetrahydro-1,6-naphthyridine-6-carbonyl)hexahydrocyclopenta[c]pyrrole-2(1H)-carboxylate]", "IC50": 80},
      {"smiles": "COc1cccc(COC(=O)N2C[C@@H]3C[C@@H](NC4CCOCC4OC)C[C@]3(C(=O)N3CCc4ncc(C(F)(F)F)cc4C3)C2)c1", "note": "(relative stereo) [Example 60, (3aR,5R,6aR)-3-Methoxybenzyl 5-(((3S*,4S*)-3-methoxytetrahydro-2H-pyran-4-yl)amino)-3a-(3-(trifluoromethyl)-5,6,7,8-tetrahydro-1,6-naphthyridine-6-carbonyl)hexahydrocyclopenta-[c]pyrrole-2(1H)-carboxylate]", "IC50": 100},
      {"smiles": "COC1COCCC1N[C@@H]1C[C@H]2CN(C(=O)CNC(C)=O)C[C@@]2(C(=O)N2CCc3ncc(C(F)(F)F)cc3C2)C1", "note": "(relative stereo) [Example 75, N-(2-((3aR,5R,6aR)-5-(((3S*,4S*)-3-Methoxytetrahydro-2H-pyran-4-yl)amino)-3a-(3-(trifluoromethyl)-5,6,7,8-tetrahydro-1,6-naphthyridine-6-carbonyl)hexahydrocyclopenta-[c]pyrrol-2(1H)-yl)-2-oxoethyl)acetamide]", "IC50": 170},
      {"smiles": "COC1COCCC1N[C@@H]1C[C@H]2CN(/C(N)=N\\C#N)C[C@@]2(C(=O)N2CCc3ncc(C(F)(F)F)cc3C2)C1", "note": "(relative stereo) [Example 115, (3aR,5R,6aR,E)-N′-Cyano-5-(((3S*,4S*)-3-methoxytetrahydro-2H-pyran-4-yl)amino)-3a-(3-(trifluoromethyl)-5,6,7,8-tetrahydro-1,6-naphthyridine-6-carbonyl)hexahydrocyclopenta-[c]pyrrole-2(1H)-carboximidamide]", "IC50": 40},
      {"smiles": "COC1COCCC1N[C@@H]1C[C@H]2CN(C(N)=O)C[C@@]2(C(=O)N2CCc3ncc(C(F)(F)F)cc3C2)C1", "note": "(relative stereo) [Example 2, (3aR,5R,6aR)-5-(((3S*,4S*)-(3-Methoxytetrahydro-2H-pyran-4-yl)amino)-3a-(3-(trifluoromethyl)-5,6,7,8-tetrahydro-1,6-naphthyridine-6-carbonyl)hexahydrocyclopenta[c]pyrrole-2(1H)-carboxamide]", "IC50": 60},
      {"smiles": "CNC(=O)N1C[C@@H]2C[C@@H](NC3CCOCC3OC)C[C@]2(C(=O)N2CCc3ncc(C(F)(F)F)cc3C2)C1", "note": "(relative stereo) [Example 13, (3aR,5R,6aR)-5-(((3S*,4S*)-(3-Methoxytetrahydro-2H-pyran-4-yl)amino)-N-methyl-3a-(3-(trifluoromethyl)-5,6,7,8-tetrahydro-1,6-naphthyridine-6-carbonyl)hexahydrocyclopenta-[c]pyrrole-2(1H)-carboxamide]", "IC50": 80},
      {"smiles": "COC1COCCC1N[C@@H]1C[C@H]2CN(Cc3ccccc3)C[C@@]2(C(=O)N2CCc3ncc(C(F)(F)F)cc3C2)C1", "note": "(relative stereo) [Example 101, ((3aR,5R,6aR)-2-Benzyl-5-(((3S*,4S*)-3-methoxytetrahydro-2H-pyran-4-yl)amino)octahydrocyclopenta[c]pyrrol-3a-yl)(3-(trifluoromethyl)-7,8-dihydro-1,6-naphthyridin-6(5H)-yl)methanone]", "IC50": 370},
      {"smiles": "COC1COCCC1N[C@@H]1C[C@H]2CN(C(=O)CCN3CCCCC3)C[C@@]2(C(=O)N2CCc3ncc(C(F)(F)F)cc3C2)C1", "note": "(relative stereo) [Example 79, 1-((3aR,5R,6aR)-5-(((3S*,4S*)-3-Methoxytetrahydro-2H-pyran-4-yl)amino)-3a-(3-(trifluoromethyl)-5,6,7,8-tetrahydro-1,6-naphthyridine-6-carbonyl)hexahydrocyclopenta-[c]pyrrol-2(1H)-yl)-3-(piperidin-1-yl)propan-1-one]", "IC50": 500},
      {"smiles": "COC1COCCC1N[C@@H]1C[C@H]2CN(C(=O)Oc3ccccc3)C[C@@]2(C(=O)N2CCc3ncc(C(F)(F)F)cc3C2)C1", "note": "(relative stereo) [Example 37, (3aR,5R,6aR)-Phenyl 5-(((3S*,4S*)-3-methoxytetrahydro-2H-pyran-4-yl)amino)-3a-(3-(trifluoromethyl)-5,6,7,8-tetrahydro-1,6-naphthyridine-6-carbonyl)hexahydro-cyclopenta[c]pyrrole-2(1H)-carboxylate]", "IC50": 150},
      {"smiles": "COC1COCCC1N[C@@H]1C[C@H]2CN(C(=O)OCCNC(C)=O)C[C@@]2(C(=O)N2CCc3ncc(C(F)(F)F)cc3C2)C1", "note": "(relative stereo) [Example 63, (3aR,5R,6aR)-2-Acetamidoethyl 5-(((3S*,4S*)-3-methoxytetrahydro-2H-pyran-4-yl)amino)-3a-(3-(trifluoromethyl)-5,6,7,8-tetrahydro-1,6-naphthyridine-6-carbonyl)hexahydrocyclopenta[c]pyrrole-2(1H)-carboxylate]", "IC50": 50},
      {"smiles": "COC1COCCC1N[C@@H]1C[C@H]2CN(c3nccs3)C[C@@]2(C(=O)N2CCc3ncc(C(F)(F)F)cc3C2)C1", "note": "(relative stereo) [Example 110, ((3aR,5R,6aR)-5-(((3S*,4S*)-3-Methoxytetrahydro-2H-pyran-4-yl)amino)-2-(thiazol-2-yl)octahydrocyclopenta[c]pyrrol-3a-yl)(3-(trifluoromethyl)-7,8-dihydro-1,6-naphthyridin-6(5H)-yl)methanone]", "IC50": 150},
      {"smiles": "COC1COCCC1N[C@@H]1C[C@H]2CN(C(=O)Nc3ccccc3)C[C@@]2(C(=O)N2CCc3ncc(C(F)(F)F)cc3C2)C1", "note": "(relative stereo) [Example 16, (3aR,5R,6aR)-5-(((3S*,4S*)-(3-methoxytetrahydro-2H-pyran-4-yl)amino)-N-phenyl-3a-(3-(trifluoromethyl)-5,6,7,8-tetrahydro-1,6-naphthyridine-6-carbonyl)hexahydrocyclopenta-[c]pyrrole-2(1H)-carboxamide]", "IC50": 470},
      {"smiles": "COC1COCCC1N[C@@H]1C[C@H]2CN(C3=NCCS3)C[C@@]2(C(=O)N2CCc3ncc(C(F)(F)F)cc3C2)C1", "note": "(relative stereo) [Example 112, ((3aR,5R,6aR)-2-(4,5-Dihydrothiazol-2-yl)-5-(((3S*,4S*)-3-methoxytetrahydro-2H-pyran-4-yl)amino)octahydrocyclopenta[c]pyrrol-3a-yl)(3-(trifluoromethyl)-7,8-dihydro-1,6-naphthyridin-6(5H)-yl)methanone]", "IC50": 3660},
      {"smiles": "COC1COCCC1N[C@@H]1C[C@H]2CN(C(=O)OCCC(C)(C)O)C[C@@]2(C(=O)N2CCc3ccc(OC(F)(F)F)cc3C2)C1", "note": "(relative stereo) [Example 50, (3aR,5R,6aR)-3-Hydroxy-3-methylbutyl 5-(((3S*,4S*)-3-methoxytetrahydro-2H-pyran-4-yl)amino)-3a-(7-(trifluoromethoxy)-1,2,3,4-tetrahydroisoquinoline-2-carbonyl)hexahydrocyclopenta[c]pyrrole-2(1H)-carboxylate]", "IC50": 30},
      {"smiles": "COC1COCCC1N[C@@H]1C[C@H]2CN(c3nc(C)no3)C[C@@]2(C(=O)N2CCc3ncc(C(F)(F)F)cc3C2)C1", "note": "(relative stereo) [Example 111, ((3aR,5R,6aR)-5-(((3S*,4S*)-3-Methoxytetrahydro-2H-pyran-4-yl)amino)-2-(3-methyl-1,2,4-oxadiazol-5-yl)octahydrocyclopenta[c]pyrrol-3a-yl)(3-(trifluoromethyl)-7,8-dihydro-1,6-naphthyridin-6(5H)-yl)methanone]", "IC50": 270}
    ]}
  ]
}
